In ChEMBL document CHEMBL5550081, “Is it still worth renewing nucleoside anticancer drugs nowadays?” (Eur J Med Chem, 2024):

Columns and labels:
U-937 = assay: Cytotoxicity against human U-937 cells assessed as reduction in cell growth incubated for 72 hrs by MTT assay; format: functional, cell-based; settings: U-937, 72 h
HCT-116 [1] = assay: Cytotoxicity against human HCT-116 cells assessed as reduction in cell growth incubated for 72 hrs by MTT assay; format: functional, cell-based; settings: HCT-116, 72 h
PRMT5/MEP50 complex = PRMT5/MEP50 complex (Homo sapiens, UniProt O14744); assay: Inhibition of PRMT5/MEP50 (unknown origin); format: cell-based, HCC4006
PRMT5/MEP50 complex, sequence (O14744 whole entry): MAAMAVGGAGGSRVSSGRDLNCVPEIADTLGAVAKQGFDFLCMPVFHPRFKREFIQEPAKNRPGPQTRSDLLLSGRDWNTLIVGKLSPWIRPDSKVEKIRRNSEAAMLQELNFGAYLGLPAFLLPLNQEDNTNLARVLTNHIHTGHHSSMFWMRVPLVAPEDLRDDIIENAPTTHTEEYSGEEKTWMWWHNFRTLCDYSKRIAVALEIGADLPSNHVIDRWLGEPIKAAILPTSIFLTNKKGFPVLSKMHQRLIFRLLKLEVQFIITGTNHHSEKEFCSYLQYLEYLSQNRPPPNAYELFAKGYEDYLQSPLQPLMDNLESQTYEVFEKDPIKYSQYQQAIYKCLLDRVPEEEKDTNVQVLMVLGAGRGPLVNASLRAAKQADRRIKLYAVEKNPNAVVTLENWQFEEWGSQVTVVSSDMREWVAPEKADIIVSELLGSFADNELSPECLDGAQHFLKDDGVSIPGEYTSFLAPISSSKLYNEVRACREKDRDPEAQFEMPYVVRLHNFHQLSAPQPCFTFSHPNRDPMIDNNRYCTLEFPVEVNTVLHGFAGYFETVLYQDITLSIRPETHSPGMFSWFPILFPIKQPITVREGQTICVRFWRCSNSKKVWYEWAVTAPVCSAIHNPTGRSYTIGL
PRMT5/MEP50 complex, sequence (Q9BQA1 whole entry, further chain): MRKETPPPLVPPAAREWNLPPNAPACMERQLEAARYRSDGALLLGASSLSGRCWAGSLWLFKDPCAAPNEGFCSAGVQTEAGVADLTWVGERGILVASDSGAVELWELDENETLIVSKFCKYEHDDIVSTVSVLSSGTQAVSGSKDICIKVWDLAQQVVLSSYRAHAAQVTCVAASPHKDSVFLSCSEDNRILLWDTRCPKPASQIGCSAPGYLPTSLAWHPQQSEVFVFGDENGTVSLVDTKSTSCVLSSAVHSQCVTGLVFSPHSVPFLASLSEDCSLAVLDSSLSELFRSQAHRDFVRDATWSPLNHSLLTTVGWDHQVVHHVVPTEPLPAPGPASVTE

A549 [2] = assay: Antiproliferative activity against human A549 cells assessed as reduction in cell growth incubated for 72 hrs by SRB assay; format: functional, cell-based; settings: A549, 72 h
HCT-116 [3] = assay: Antiproliferative activity against human HCT-116 cells assessed as reduction in cell growth incubated for 72 hrs by SRB assay; format: functional, cell-based; settings: HCT-116, 72 h
PC-3 [4] = assay: Antiproliferative activity against human PC-3 cells assessed as reduction in cell growth incubated for 72 hrs by SRB assay; format: functional, cell-based; settings: PC-3, 72 h
MDA-MB-231 [5] = assay: Antiproliferative activity against human MDA-MB-231 cells assessed as reduction in cell growth incubated for 72 hrs by SRB assay; format: functional, cell-based; settings: MDA-MB-231, 72 h
SNU-638 = assay: Antiproliferative activity against human SNU-638 cells assessed as reduction in cell growth incubated for 72 hrs by SRB assay; format: functional, cell-based; settings: SNU-638, 72 h
SK-HEP1 [6] = assay: Antiproliferative activity against human SK-HEP1 cells assessed as reduction in cell growth incubated for 72 hrs by SRB assay; format: functional, cell-based; settings: SK-HEP1, 72 h
HeLa [7] = assay: Cytotoxicity against human HeLa cells; format: functional, cell-based
Ishikawa = assay: Cytotoxicity against human Ishikawa cells; format: functional, cell-based
L929 = assay: Cytotoxicity against mouse L929 cells assessed as reduction in cell viability; format: functional, cell-based
HeLa [8] = assay: Antiproliferative activity against human HeLa cells assessed as reduction in cell viability incubated for 24 hrs by MTT assay; format: functional, cell-based
PANC-1 [9] = assay: Antiproliferative activity against human PANC-1 cells assessed as reduction in cell viability incubated for 24 hrs by MTT assay; format: functional, cell-based; settings: PANC-1, 24 h
IMR-32 = assay: Cytotoxicity against human IMR-32 cells assessed as reduction in cell viability incubated for 48 hrs by MTT assay; format: functional, cell-based; settings: IMR-32, 48 h
PC-3 [10] = assay: Antiproliferative activity against human PC-3 cells assessed as reduction in cell growth incubated for 24 hrs by MTT assay; format: functional, cell-based; settings: PC-3, 24 h
PC-3 [11] = assay: cells; settings: Homo sapiens, PC-3, 48 h
MCF7 [12] = assay: cells; settings: Homo sapiens, MCF7, 48 h
[13] = Inhibition of Hepatitis C virus NS5B polymerase; design: species or system Hepacivirus hominis
MDA-MB-231 [14] = assay: Anticancer activity against human MDA-MB-231 cells; format: functional, cell-based
A549 [15] = assay: Cytotoxicity against human A549 cells; format: functional, cell-based
HCT-116 [16] = assay: Cytotoxicity against human HCT-116 cells; format: functional, cell-based
SK-HEP1 [17] = assay: Cytotoxicity against human SK-HEP1 cells; format: functional, cell-based
A549 [18] = assay: Cytotoxicity against human A549 cells assessed as reduction in cell viability measured for 48 hrs by MTT assay; format: functional
MCF7 [19] = assay: Cytotoxicity against human MCF7 cells assessed as reduction in cell viability measured for 48 hrs by MTT assay; format: functional
U-87 MG = assay: Cytotoxicity against human U-87 MG cells; format: functional, U-87MG ATCC
PANC-1 [20] = assay: Cytotoxicity against human PANC-1 cells; format: functional
MCF7 [21] = assay: Antiproliferative activity against human MCF7 cells assessed as cell growth inhibition incubated for 48 hrs by MTT assay; format: functional, cell-based; settings: MCF7, 48 h
Z-138 = assay: Antiproliferative activity against human Z138 cells assessed as cell growth inhibition incubated for 48 hrs by MTT assay; format: functional, cell-based; settings: Z-138, 48 h
A549 [22] = assay: Cytotoxicity against human A549 cells assessed as reduction in cell growth incubated for 24 hrs by MTT assay; format: functional, cell-based; settings: A549, 24 h
MCF7 [23] = assay: Cytotoxicity against human MCF7 cells assessed as reduction in cell growth incubated for 24 hrs by MTT assay; format: functional, cell-based; settings: MCF7, 24 h
MDA-MB-231 [24] = assay: Cytotoxicity against human MDA-MB-231 cells assessed as reduction in cell growth incubated for 24 hrs by MTT assay; format: functional, cell-based; settings: MDA-MB-231, 24 h
SARS-CoV-2 = assay: Antiviral activity against SARS-CoV-2 infected in African green monkey Vero E6 cells assessed as inhibition of viral replication by qRT-PCR analysis; format: functional, organism-based; settings: Severe acute respiratory syndrome coronavirus 2, Vero C1008

Nc1ncnc2c1ncn2Cc1ccc(-c2cn(CCCCCCC(=O)NO)nn2)cc1
IC50 (U-937): 1320 nM | IC50 (HCT-116 [1]): 17400 nM

Nc1ncnc2c1ncn2[C@@H]1OC2(CC[C@H]2O)[C@@H](O)[C@H]1O (stereo not given in full)
IC50 (PRMT5/MEP50 complex): 900 nM

C#Cc1cn([C@@H]2S[C@H](CO)[C@@H](O)[C@H]2O)c2ncnc(N)c12
IC50 (A549 [2]): 60 nM | IC50 (HCT-116 [3]): 30 nM | IC50 (PC-3 [4]): 4 nM | IC50 (MDA-MB-231 [5]): 50 nM | IC50 (SNU-638): 30 nM | IC50 (SK-HEP1 [6]): 50 nM

O=c1[nH]c(=O)n(C[C@H](O)CO)cc1C#Cc1cc2ccccc2c2ccccc12
IC50 (HeLa [7]): 39300 nM | IC50 (Ishikawa): 50200 nM | IC50 (L929): 38400 nM | IC50 (HeLa [8]): 39300 nM | IC50 (PANC-1 [9]): 39300 nM

C[C@H](CCC(=O)OCc1cn(C[C@H]2O[C@@H](n3ccc(=O)[nH]c3=O)[C@@H]3OC(C)(C)O[C@@H]32)nn1)[C@H]1CC[C@H]2[C@@H]3[C@H](O)C[C@@H]4C[C@H](O)CC[C@]4(C)[C@H]3C[C@H](O)[C@]12C
IC50 (IMR-32): 16800 nM | IC50 (PC-3 [10]): 17900 nM | IC50 (HeLa [8]): 96000 nM | IC50 (PC-3 [11]): 17900 nM | IC50 (MCF7 [12]): 8080 nM

Nc1ccn([C@@H]2O[C@H](CO)[C@@H](O)C2(F)F)c(=O)n1 [GEMCITABINE]
IC50 (HeLa [7]): 240 nM | IC50 (Ishikawa): 20300 nM | IC50 (L929): 230 nM

CCCCCCCCCCCCc1ccc(-n2cc(CNCCO)nn2)cc1
IC50 (PC-3 [10]): 11000 nM | IC50 (PANC-1 [9]): 4900 nM

C#C[C@@]1(N)[C@H](O)[C@@H](CO)O[C@H]1n1cnc2c(=O)[nH]c(N)nc21
IC50 [13]: 1100 nM

[N-]=[N+]=N[C@@H]1[C@@H](O)[C@H](n2c(-c3c4ccccc4cc4ccccc34)nc3ccccc32)O[C@@H]1CO
IC50 (MDA-MB-231 [14]): 420 nM

Nc1ncnc2c1c1sc3c4sccc4sc3c1n2[C@H]1C[C@@H](O)[C@@H](CO)O1
IC50 (A549 [15]): 14200 nM | IC50 (HCT-116 [16]): 1910 nM | IC50 (SK-HEP1 [17]): 480 nM

C=C(N)NCCOc1cccc2c1Nc1nc(=O)n([C@@H]3O[C@H](CO)[C@@H](O)[C@H]3O)cc1O2
CC50 (A549 [18]): 800 nM | CC50 (MCF7 [19]): 4300 nM

Nc1ccn([C@@H]2S[C@H](CO)[C@@H](O)[C@@H]2O)c(=O)n1 [THIARABINE]
CC50 (U-87 MG): 590 nM | CC50 (PANC-1 [20]): 590 nM

COc1cccc2c1C(=O)c1c(O)c3c(c(O)c1C2=O)C[C@@](O)(C(=O)CO)C[C@@H]3O[C@H]1C[C@H](N)[C@H](O)[C@H](C)O1 [DOXORUBICIN]
IC50 (IMR-32): 43 nM | CC50 (A549 [18]): 30 nM | CC50 (MCF7 [19]): 900 nM | IC50 (PC-3 [11]): 336 nM | IC50 (MCF7 [12]): 440 nM

Cc1ncnc2c1ccn2[C@@H]1O[C@@H]2[C@H](Cc3ccc4cc(Br)c(N)nc4c3)OC[C@]2(O)[C@H]1O
IC50 (PRMT5/MEP50 complex): 0.8 nM | IC50 (MCF7 [21]): 3 nM | IC50 (Z-138): 15 nM

CC(=O)Nc1ccn(-c2nnc(Cn3cnc4c3c(=O)n(C)c(=O)n4C)o2)c(=O)n1
IC50 (A549 [22]): 20400 nM | IC50 (MCF7 [23]): 25200 nM | IC50 (MDA-MB-231 [24]): 24700 nM

[2H]C([2H])(O)[C@H]1O[C@@](C#N)(c2ccc3c(N)ncnn23)[C@H](O)[C@@H]1O
EC50 (SARS-CoV-2): 250 nM
